For test [1], the target named is T1, human vitronectin receptor (αv β3) (Homo sapiens, UniProt P05106+P06756).
T1 construct: purified from human placenta; from tissue; host or cells: human placenta
Briefly: Vitronectin adhesion assay, solid phase receptor assay (inhibition of biotinylated vitronectin binding to purified αvβ3). Here is the method:
Human vitronectin receptor (αv β3) was purified from human placenta as previously described [Pytela et al., Methods in Enzymology, 144:475-489 (1987)]. Human vitronectin was purified from fresh frozen plasma as previously described [Yatohgo et al., Cell Structure and Function, 13:281-292 (1988)]. Biotinylated human vitronectin was prepared by coupling NHS-biotin from Pierce Chemical Company (Rockford, Ill.) to purified vitronectin as previously described [Charo et al., J. Biol. Chem., 266(3):1415-1421 (1991)]. Assay buffer, OPD substrate tablets, and RIA grade BSA were obtained from Sigma (St. Louis, Mo.). Anti-biotin antibody was obtained from Calbiochem (La Jolla, Calif.). Linbro microtiter plates were obtained from Flow Labs (McLean, Va.). ADP reagent was obtained from Sigma (St. Louis, Mo.).
This assay was essentially the same as previously reported [Niiya et al., Blood, 70:475-483 (1987)]. The purified human vitronectin receptor (αv β3) was diluted from stock solutions to […] in tris-buffered saline containing 1.0 mM Ca^++, Mg^++, and Mn^++, pH 7.4 (TBS^+++). The diluted receptor was immediately transferred to Linbro microtiter plates at 100 µL/well (100 ng receptor/well). The plates were sealed and incubated overnight at 4° C. to allow the receptor to bind to the wells. All remaining steps were at room temperature. The assay plates were emptied and 200 µL of 1% RIA grade BSA in TBS^+++ (TBS^+++ /BSA) were added to block exposed plastic surfaces. Following a 2 hour incubation, the assay plates were washed with TBS^+++ using a 96 well plate washer. Logarithmic serial dilution of the test compound and controls were made starting at a stock concentration of 2 mM and using 2 nM biotinylated vitronectin in TBS^+++ /BSA as the diluent. This premixing of labeled ligand with test (or control) ligand, and subsequent transfer of 50 µL aliquots to the assay plate was carried out with a CETUS Propette robot; the final concentration of the labeled ligand was 1 nM and the highest concentration of test compound was 1.0×10^-4 M. The competition occurred for two hours after which all wells were washed with a plate washer as before. Affinity purified horseradish peroxidase labeled goat anti-biotin antibody was diluted 1:3000 in TBS^+++ /BSA and 125 µL were added to each well. After 30 minutes, the plates were washed and incubated with OPD/H2 O substrate in 100 mM/L Citrate buffer, pH 5.0. The plate was read with a microtiter plate reader at a wavelength of 450 nm and when the maximum-binding control wells reached an absoround bottomance of about 1.0, the final A450 were recorded for analysis. The data were analyzed using a macro written for use with the EXCEL spreadsheet program. The mean, standard deviation, and % CV were determined for duplicate concentrations. The mean A450 values were normalized to the mean of four maximum-binding controls (no competitor added)(B-MAX). The normalized values were subjected to a four parameter curve fit algorithm [Rodbard et al., Int.

In test [2] the target is T2, human fibrinogen receptor (αIIb β3) (Homo sapiens, UniProt P05106+P08514).
T2 construct: purified from outdated platelets; from tissue; host or cells: outdated human platelets
Briefly: Purified IIb/IIIa receptor assay, solid phase receptor assay (inhibition of biotinylated vitronectin binding). To be noted: 1 nM biotinylated human vitronectin, pH 7.4, 2 h competition. The text has this: Human fibrinogen receptor (αIIb β3) was purified from outdated platelets. (Pytela, R., Pierschbacher, M. D., Argraves, S., Suzuki, S., and Rouslahti, E. "Arginine-Glycine-Aspartic acid adhesion receptors", Methods in Enzymology 144(1987):475-489.) Human vitronectin was purified from fresh frozen plasma as described in Yatohgo, T., Izumi, M., Kashiwagi, H., and Hayashi, M., "Novel purification of vitronectin from human plasma by heparin affinity chromatography," Cell Structure and Function 13(1988):281-292. Biotinylated human vitronectin was prepared by coupling NHS-biotin from Pierce Chemical Company (Rockford, Il.) to purified vitronectin as previously described. (Charo, I. F., Nannizzi, L., Phillips, D. R., Hsu, M. A., Scaround bottomorough, R. M., "Inhibition of fibrinogen binding to GP IIIb/IIIa by a GP IIIa peptide", J. Biol. Chem. 266(3)(1991): 1415-1421.) Assay buffer, OPD substrate tablets, and RIA grade BSA were obtained from Sigma (St. Louis, Mo.). Anti-biotin antibody was obtained from Calbiochem (La Jolla, Calif.). Linbro microtiter plates were obtained from Flow Labs (McLean, Va.). ADP reagent was obtained from Sigma (St. Louis, Mo.).
This assay is essentially the same reported in Niiya, K., Hodson, E., Bader, R., Byers-Ward, V. Koziol, J. A., Plow, E. F. and Ruggeri, Z. M., "Increased surface expression of the membrane glycoprotein IIb/IIIa complex induced by platelet activation: Relationships to the binding of fibrinogen and platelet aggregation", Blood 70(1987):475-483. The purified human fibrinogen receptor (αIIb β3) was diluted from stock solutions to 1.0 μg/mL in Tris-buffered saline containing 1.0 mM Ca^++, Mg^++, and Mn^++, pH 7.4 (TBS^+++). The diluted receptor was immediately transferred to Linbro microtiter plates at 100 μL/well (100 ng receptor/well). The plates were sealed and incubated overnight at 4° C. to allow the receptor to bind to the wells. All remaining steps were at room temperature. The assay plates were emptied and 200 μL of 1% RIA grade BSA in TBS^+++ (TBS^+++ /BSA) were added to block exposed plastic surfaces. Following a 2 hour incubation, the assay plates were washed with TBS^+++ using a 96 well plate washer. Logarithmic serial dilution of the test compound and controls were made starting at a stock concentration of 2 mM and using 2 nM biotinylated vitronectin in TBS^+++ /BSA as the diluent. This premixing of labeled ligand with test (or control) ligand, and subsequent transfer of 50 μL aliquots to the assay plate was carried out with a CETUS Propette robot; the final concentration of the labeled ligand was 1 nM and the highest concentration of test compound was 1.0×10^-4 M. The competition occurred for two hours after which all wells were washed with a plate washer as before. Affinity purified horseradish peroxidase labeled goat anti-biotin antibody was diluted 1:3000 in TBS^+++ /BSA and 125 μL were added to each well. After 30 minutes, the plates were washed and incubated with […]/H2 O2 substrate in 100 mM/L citrate buffer, pH 5.0. The plate was read with a microtiter plate reader at a wavelength of 450 nm and when the maximum-binding control wells reached an absoround bottomance of about 1.0, the final A450 were recorded for analysis. The data were analyzed using a macro written for use with the EXCEL™ spreadsheet program. The mean, standard deviation, and % CV were determined for duplicate concentrations. The mean A450 values were normalized to the mean of four maximum-binding controls (no competitor added)(B-MAX). The normalized values were subjected to a four parameter curve fit algorithm, [Robard et al., Int.

Setting [3] is: 1 nM biotinylated human vitronectin, purified receptor, pH 7.4, 2 h competition, read-out: αv β3 IC50.

Structures can show the parent of a compound that is named as a salt. Where two headings read alike, the source gives them in different places.

Broadly, the IC50 is the concentration needed to halve the response being measured.

T2 sequence (P08514 32-887 limits assumed): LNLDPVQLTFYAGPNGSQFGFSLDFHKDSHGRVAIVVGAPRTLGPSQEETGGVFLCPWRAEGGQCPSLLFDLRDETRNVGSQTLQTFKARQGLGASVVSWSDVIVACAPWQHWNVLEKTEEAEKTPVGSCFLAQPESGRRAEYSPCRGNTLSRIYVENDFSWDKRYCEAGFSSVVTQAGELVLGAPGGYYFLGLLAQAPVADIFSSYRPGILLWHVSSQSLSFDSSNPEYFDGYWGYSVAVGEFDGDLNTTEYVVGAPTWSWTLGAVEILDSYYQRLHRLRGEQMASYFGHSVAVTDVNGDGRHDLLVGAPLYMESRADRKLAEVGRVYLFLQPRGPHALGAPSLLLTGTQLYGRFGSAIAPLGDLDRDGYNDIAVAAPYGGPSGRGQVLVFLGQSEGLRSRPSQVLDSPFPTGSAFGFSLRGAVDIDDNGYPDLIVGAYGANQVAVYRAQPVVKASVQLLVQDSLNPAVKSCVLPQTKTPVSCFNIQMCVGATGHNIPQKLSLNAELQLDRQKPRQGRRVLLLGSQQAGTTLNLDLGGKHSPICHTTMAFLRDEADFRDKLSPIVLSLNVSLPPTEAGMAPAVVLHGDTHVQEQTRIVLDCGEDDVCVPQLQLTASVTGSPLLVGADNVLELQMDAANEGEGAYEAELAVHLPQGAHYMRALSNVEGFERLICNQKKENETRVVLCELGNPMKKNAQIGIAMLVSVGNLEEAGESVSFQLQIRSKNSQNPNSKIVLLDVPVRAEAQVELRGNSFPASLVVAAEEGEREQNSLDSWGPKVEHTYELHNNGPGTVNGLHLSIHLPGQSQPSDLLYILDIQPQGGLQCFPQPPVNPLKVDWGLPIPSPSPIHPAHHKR
T2 sequence (P08514 891-1039 limits assumed): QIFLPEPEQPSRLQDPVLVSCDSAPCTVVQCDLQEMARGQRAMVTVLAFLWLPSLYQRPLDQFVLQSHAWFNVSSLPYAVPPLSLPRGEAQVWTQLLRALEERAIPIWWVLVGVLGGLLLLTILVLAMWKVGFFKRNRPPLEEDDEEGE
T2 sequence (P05106 27-788): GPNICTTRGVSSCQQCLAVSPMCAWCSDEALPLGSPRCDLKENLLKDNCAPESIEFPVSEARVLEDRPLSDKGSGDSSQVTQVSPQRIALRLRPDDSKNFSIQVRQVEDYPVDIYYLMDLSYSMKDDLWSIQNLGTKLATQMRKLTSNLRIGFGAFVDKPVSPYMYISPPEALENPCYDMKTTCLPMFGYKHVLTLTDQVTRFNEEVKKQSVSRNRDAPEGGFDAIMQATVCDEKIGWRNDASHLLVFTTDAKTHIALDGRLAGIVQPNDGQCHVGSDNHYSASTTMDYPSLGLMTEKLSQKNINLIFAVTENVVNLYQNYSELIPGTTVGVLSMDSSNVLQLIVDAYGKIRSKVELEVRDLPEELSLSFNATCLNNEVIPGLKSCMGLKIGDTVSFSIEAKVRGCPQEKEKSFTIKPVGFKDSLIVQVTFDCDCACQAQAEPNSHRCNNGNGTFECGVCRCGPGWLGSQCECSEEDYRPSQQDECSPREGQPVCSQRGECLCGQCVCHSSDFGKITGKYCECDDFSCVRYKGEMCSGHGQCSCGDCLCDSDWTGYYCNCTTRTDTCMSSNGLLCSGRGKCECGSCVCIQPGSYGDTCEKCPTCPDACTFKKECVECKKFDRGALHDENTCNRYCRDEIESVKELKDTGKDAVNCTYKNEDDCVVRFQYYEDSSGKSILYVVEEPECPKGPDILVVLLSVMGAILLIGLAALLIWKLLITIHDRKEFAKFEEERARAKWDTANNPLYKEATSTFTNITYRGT
T1 sequence (P06756 31-889 limits assumed): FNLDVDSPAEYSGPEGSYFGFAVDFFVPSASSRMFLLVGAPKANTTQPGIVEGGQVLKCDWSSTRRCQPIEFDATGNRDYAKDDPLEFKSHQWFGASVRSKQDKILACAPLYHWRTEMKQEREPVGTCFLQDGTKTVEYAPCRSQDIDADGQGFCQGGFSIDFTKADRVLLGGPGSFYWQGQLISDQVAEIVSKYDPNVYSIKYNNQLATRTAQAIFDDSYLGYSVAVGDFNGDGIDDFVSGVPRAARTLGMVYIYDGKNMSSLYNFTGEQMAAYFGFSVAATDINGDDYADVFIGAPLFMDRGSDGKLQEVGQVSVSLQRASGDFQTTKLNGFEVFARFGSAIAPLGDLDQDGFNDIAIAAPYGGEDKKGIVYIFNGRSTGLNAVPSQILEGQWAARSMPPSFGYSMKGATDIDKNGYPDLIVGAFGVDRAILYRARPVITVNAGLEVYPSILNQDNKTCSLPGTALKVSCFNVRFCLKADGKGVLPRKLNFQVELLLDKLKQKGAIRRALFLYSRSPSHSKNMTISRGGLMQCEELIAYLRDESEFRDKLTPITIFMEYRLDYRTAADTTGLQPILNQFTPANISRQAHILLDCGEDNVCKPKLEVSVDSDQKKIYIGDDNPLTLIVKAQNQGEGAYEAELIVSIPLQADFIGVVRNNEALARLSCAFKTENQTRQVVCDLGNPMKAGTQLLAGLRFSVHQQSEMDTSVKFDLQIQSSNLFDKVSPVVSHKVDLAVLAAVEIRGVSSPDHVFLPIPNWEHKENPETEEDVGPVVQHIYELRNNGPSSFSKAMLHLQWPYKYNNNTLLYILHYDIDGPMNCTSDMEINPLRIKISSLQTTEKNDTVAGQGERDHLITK
T1 sequence (P06756 891-1048 limits assumed): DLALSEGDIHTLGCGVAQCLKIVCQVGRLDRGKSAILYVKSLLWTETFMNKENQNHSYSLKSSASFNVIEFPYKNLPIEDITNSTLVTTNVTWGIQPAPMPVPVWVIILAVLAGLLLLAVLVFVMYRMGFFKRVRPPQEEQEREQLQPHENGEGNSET
T1 sequence (P05106 27-788): as the sequence (P05106 27-788) above

As for `O=C(O)CC(NC(=O)CNC(=O)c1cc(O)cc(NC2=NCC(O)CN2)c1)c1cc(Cl)cc(Br)c1O` (racemic) [Example 1, (±) 3-bromo-5-chloro-2-hydroxy-β-[[2-[[[3-hydroxy-5-[(1,4,5,6-tetrahydro-5-hydroxypyrimidin-2-yl)amino]phenyl]carbonyl]amino]acetyl]amino]benzenepropanoic acid, trifluroacetate salt], the half-maximal inhibitory concentration (IC50) in test [1] (setting [3]) was determined as 0.88 nM; in test [2], 310 nM. As for `O=C(O)C[C@H](NC(=O)CNC(=O)c1cc(O)cc(NC2=NCC(O)CN2)c1)c1cc(Cl)cc(Br)c1O` (stereo partly shown) [9 · HCl], the concentration for half-maximal inhibition (IC50) in test [1] (setting [3]) was found to be 0.82 nM; in test [2], 226 nM. The corresponding values for `O=C(O)CC(NC(=O)CNC(=O)c1cc(O)cc(NC2=NCC(O)CN2)c1)c1cc(Cl)cc(Cl)c1O` (stereo not shown) [Example 2] are 1.04 nM and 430 nM. The corresponding values for `O=C(O)CC(NC(=O)CNC(=O)c1cc(O)cc(NC2=NCC(O)CN2)c1)c1cc(Br)cc(I)c1O` (stereo not shown) [Example 3] are 23.7 nM and 2440 nM. In the case of `O=C(O)CC(NC(=O)CNC(=O)c1cc(O)cc(NC2=NCC(O)CN2)c1)c1cc(Br)cc(Cl)c1O` (stereo not shown) [Example 4], the concentration for half-maximal inhibition (IC50) in test [1] (setting [3]) was 2.02 nM; in test [2], 575 nM. The corresponding values for `O=C(O)CC(NC(=O)CNC(=O)c1cc(O)cc(NC2=NCC(O)CN2)c1)c1cc(Cl)cc(I)c1O` (stereo not shown) [Example 5] are 2.13 nM and 744 nM. The corresponding values for `O=C(O)CC(NC(=O)CNC(=O)c1cc(O)cc(NC2=NCC(O)CN2)c1)c1cc(Br)cc(Br)c1O` (stereo not shown) [Example 6] are 6.46 nM and 919 nM.

Take `O=C(O)C[C@H](NC(=O)CNC(=O)c1cc(O)cc(N=C2NCC(O)CN2)c1)c1cc(Br)cc(Cl)c1O` (stereo partly shown) [Example 7]: the IC50 stood at 1.01 nM in test [1] (setting [3]) and 262 nM in test [2]. For `O=C(O)C[C@H](NC(=O)CNC(=O)c1cc(O)cc(N=C2NCC(O)CN2)c1)c1cc(Cl)cc(Cl)c1O` (stereo partly drawn) [Example 8, (S) 3,5-dichloro-2-hydroxy-β-[[2-[[[3-hydroxy-5-[(1,4,5,6-tetrahydro-5-hydroxypyrimidin-2-yl)amino]phenyl]carbonyl]amino]acetyl]amino]-benzenepropanoic acid, monohydrochloride monohydrate] the same measures were 0.4 nM and 131 nM. For `O=C(O)C[C@H](NC(=O)CNC(=O)c1cc(O)cc(NC2=NCC(O)CN2)c1)c1cc(Cl)cc(Br)c1O` (stereo partly drawn) [Example 9, (S) 3-bromo-5-chloro-2-hydroxy-β-[[2-[[[3-hydroxy-5-[(1,4,5,6-tetrahydro-5-hydroxypyrimidin-2-yl)amino]phenyl]carbonyl]amino]acetyl]amino]-benzenepropanoic acid, trifluoroacetate salt] the same measures were 0.37 nM and 388 nM. Consider `O=C(O)C[C@H](NC(=O)CNC(=O)c1cc(O)cc(NC2=NCC(O)CN2)c1)c1cc(Br)cc(Br)c1O` (stereo partly shown) [Example 10], for which the 50% inhibitory concentration (IC50) came out at 2.26 nM in test [1] (setting [3]) and 641 nM in test [2].

Turning to `O=C(O)C[C@H](NC(=O)CNC(=O)c1cc(O)cc(NC2=NCC(O)CN2)c1)c1cc(Br)cc(I)c1O` (stereo partly shown) [Example 12], the results for the IC50 in test [1] (setting [3]) and in test [2] were 9.59 nM and 1060 nM, respectively. With `N=C(N)NCCCCC(=O)NCC(=O)NC(CC(=O)O)c1cccnc1` (stereo not drawn) [β-[[2-[[5-[(aminoiminomethyl)-amino]-1-oxopentyl]amino]-1-oxoethyl]amino]-3-pyridinepropanoic acid, reference compound], the IC50 in test [1] (positive control included on each plate, read-out: αv β3 antagonist IC50 of positive control) lay within 3 to 10 nM.

(Values after patent US6013651A, “Meta-azacyclic amino benzoic acid compounds and derivatives thereof” (G. D. Searle & Co., priority 1998, dated 2000).)
